In patent US9238657B2, “Cephalosporin having catechol group” (SHIONOGI & CO., LTD., priority 2008, dated 2016) one finds MIC data, which are given here for 14 compounds.

What all share (assay): Minimum Inhibitory Concentration (MIC), agar plate incubation
Format in all cases: cell-based

In assay [1] the test system is Acinetobacter baumannii SR24396. Here is the method:
(§1) Measurement of Minimum Inhibitory Concentration (MIC, microg/ml) was conducted according to the standard method of the Japan Society for Chemotherapy, and the amount of bacteria for inoculation was 1000 cfu/spot, and sensitive disc medium was used as the test medium, and conducted using agar plate incubation.
(§2) In the tables, a unit of the values of inhibitory activity is microg/ml (μg/ml).
(§3) Bacterial strains described in the above tables and enzyme (beta-lactamase) produced thereby are explained in Table 7.

Assay [2] deals with Pseudomonas aeruginosa SR27060. Here is the method:
as §1, §2, §3

For assay [3], the system named is Pseudomonas aeruginosa SR24. How it is done: as §1, §2, §3
The test system of assay [4] is Klebsiella pneumoniae ATCC 700603. How it is done:
as §1, §2, §3

Assay [5] has as its system Stenotrophomonas maltophilia SR21970. How it is done: as §1, §2, §3
The mark [6] stands for this setting: Acinetobacter baumannii SR24396 (no enzyme), 1000 cfu/spot, sensitive disc medium, read-out: Minimum Inhibitory Concentration (MIC).
Where [7] appears, read: Pseudomonas aeruginosa SR27060 (IMP-1, MBL producer strain, carbapenem resistant), 1000 cfu/spot, sensitive disc medium, read-out: Minimum Inhibitory Concentration (MIC).
[8] abbreviates: Pseudomonas aeruginosa SR24 (no enzyme, Ceftazidime sensitive strain), 1000 cfu/spot, sensitive disc medium, read-out: Minimum Inhibitory Concentration (MIC).
Where [9] appears, read: ATCC700603, Klebsiella pneumoniae ATCC 700603 (SHV-18, ESBL producer strain), 1000 cfu/spot, sensitive disc medium, read-out: Minimum Inhibitory Concentration (MIC).
Setting [10] is: Stenotrophomonas maltophilia SR21970 (L-1, MBL producer strain, carbapenem resistant), 1000 cfu/spot, sensitive disc medium, read-out: Minimum Inhibitory Concentration (MIC).
The mark [11] stands for this setting: Acinetobacter baumannii, SR24396, read-out: Minimum Inhibitory Concentration (MIC).
Where [12] appears, read: Pseudomonas aeruginosa, SR27060, read-out: Minimum Inhibitory Concentration (MIC).
Where [13] appears, read: Pseudomonas aeruginosa, SR24, read-out: Minimum Inhibitory Concentration (MIC).
Setting [14] is: Klebsiella pneumoniae, ATCC700603, read-out: Minimum Inhibitory Concentration (MIC).
The mark [15] stands for this setting: Stenotrophomonas maltophilia, SR21970, read-out: Minimum Inhibitory Concentration (MIC).

Molecules are shown by their SMILES. Values after ≈ are worked out from the molar mass of the structure shown. Where two headings read alike, the source gives them in different places.

In the case of `CC(C)(O/N=C(\C(=O)N[C@@H]1C(=O)N2C(C(=O)[O-])=C(C[N+]3(CCNC(=O)c4ccc(O)c(O)c4Cl)CCCCC3)CS[C@H]12)c1csc(N)n1)C(=O)O` [Compound I-18], the MIC in assay [1] (setting [6]) was 0.25 µg/mL (≈ 0.326 µM); in assay [2] (setting [7]) it was 0.25 µg/mL (≈ 0.326 µM); in assay [3] (setting [8]), 0.063 µg/mL (≈ 0.0822 µM); in assay [4] (setting [9]), 0.125 µg/mL (≈ 0.163 µM); in assay [5] (setting [10]), 0.5 µg/mL (≈ 0.653 µM).
For `CC(C)(O/N=C(\C(=O)N[C@@H]1C(=O)N2C(C(=O)[O-])=C(C[N+]3(CCNC(=O)c4cc(Cl)c(O)c(O)c4Cl)CCCCC3)CS[C@H]12)c1csc(N)n1)C(=O)O` [Compound I-19], the MIC in assay [1] (setting [6]) worked out at 0.125 µg/mL (≈ 0.156 µM); in assay [2] (setting [7]), 0.125 µg/mL (≈ 0.156 µM); in assay [3] (setting [8]), 0.063 µg/mL (≈ 0.0787 µM); in assay [4] (setting [9]), 0.125 µg/mL (≈ 0.156 µM); in assay [5] (setting [10]), 0.25 µg/mL (≈ 0.312 µM).
Take `C[C@H](O/N=C(\C(=O)N[C@@H]1C(=O)N2C(C(=O)[O-])=C(C[N+]3(CCNC(=O)c4ccc(O)c(O)c4Cl)CCCCC3)CS[C@H]12)c1nc(N)sc1Cl)C(=O)[O-].[Na+]` [Compound I-22]: the MIC was determined as 0.25 µg/mL in assay [1] (setting [6]); 0.125 µg/mL in assay [2] (setting [7]); 0.063 µg/mL in assay [3] (setting [8]); 0.125 µg/mL in assay [4] (setting [9]); 4 µg/mL in assay [5] (setting [10]).
In the case of `C=C(O/N=C(\C(=O)N[C@@H]1C(=O)N2C(C(=O)[O-])=C(C[N+]3(CCNC(=O)c4ccc(O)c(O)c4Cl)CCCC3)CS[C@H]12)c1csc(N)n1)C(=O)O` [II-1], the MIC turned out to be 0.125 µg/mL (≈ 0.17 µM) in assay [1] (setting [6]); 0.25 µg/mL (≈ 0.34 µM) in assay [2] (setting [7]); 0.125 µg/mL (≈ 0.17 µM) in assay [3] (setting [8]); 0.5 µg/mL (≈ 0.679 µM) in assay [4] (setting [9]); 2 µg/mL (≈ 2.72 µM) in assay [5] (setting [10]).
Regarding `Nc1nc(/C(=N/OC2(C(=O)[O-])CC2)C(=O)N[C@@H]2C(=O)N3C(C(=O)O)=C(C[N+]4(CCNC(=O)c5ccc(O)c(O)c5Cl)CCCC4)CS[C@H]23)cs1` [II-2], the MIC came to 0.125 µg/mL (≈ 0.167 µM) in assay [1] (setting [6]); 0.25 µg/mL (≈ 0.333 µM) in assay [2] (setting [7]); 0.125 µg/mL (≈ 0.167 µM) in assay [3] (setting [8]); 0.5 µg/mL (≈ 0.666 µM) in assay [4] (setting [9]); 0.5 µg/mL (≈ 0.666 µM) in assay [5] (setting [10]).
`Nc1nc(/C(=N/O[C@H](C(=O)O)c2ccccc2)C(=O)N[C@@H]2C(=O)N3C(C(=O)[O-])=C(C[N+]4(CCNC(=O)c5ccc(O)c(O)c5Cl)CCCC4)CS[C@H]23)cs1` [II-3]: the MIC was determined as 0.25 µg/mL (≈ 0.312 µM) in assay [1] (setting [11]); 0.5 µg/mL (≈ 0.625 µM) in assay [2] (setting [12]); 0.125 µg/mL (≈ 0.156 µM) in assay [3] (setting [13]); 0.125 µg/mL (≈ 0.156 µM) in assay [4] (setting [14]); 1 µg/mL (≈ 1.25 µM) in assay [5] (setting [15]).
In the case of `NC(=O)C[C@H](O/N=C(\C(=O)N[C@@H]1C(=O)N2C(C(=O)[O-])=C(C[N+]3(CCNC(=O)c4ccc(O)c(O)c4Cl)CCCC3)CS[C@H]12)c1csc(N)n1)C(=O)O` [II-4], the MIC in assay [1] (setting [11]) came to 0.25 µg/mL (≈ 0.32 µM); in assay [2] (setting [12]) it was 0.25 µg/mL (≈ 0.32 µM); in assay [3] (setting [13]) it was 0.125 µg/mL (≈ 0.16 µM); in assay [4] (setting [14]), 0.5 µg/mL (≈ 0.64 µM); in assay [5] (setting [15]), 1 µg/mL (≈ 1.28 µM).
Regarding `Nc1nc(/C(=N/O/C(=C/C(=O)O)C(=O)O)C(=O)N[C@@H]2C(=O)N3C(C(=O)O)=C(C[N+]4(CCNC(=O)c5ccc(O)c(O)c5Cl)CCCC4)CS[C@H]23)cs1` [II-10], the MIC was 0.25 µg/mL in assay [1] (setting [6]); 0.25 µg/mL in assay [2] (setting [7]); 0.125 µg/mL in assay [3] (setting [8]); 0.5 µg/mL in assay [4] (setting [9]); 1 µg/mL in assay [5] (setting [10]).
For the compound `C[C@@H](C[N+]1(CC2=C(C(=O)O)N3C(=O)[C@@H](NC(=O)/C(=N\OC(C)(C)C(=O)[O-])c4csc(N)n4)[C@H]3SC2)CCCC1)NC(=O)c1ccc(O)c(O)c1Cl` [II-12], the MIC in assay [1] (setting [11]) is 0.25 µg/mL (≈ 0.326 µM); in assay [2] (setting [12]) it was 0.25 µg/mL (≈ 0.326 µM); in assay [3] (setting [13]) it was 0.063 µg/mL (≈ 0.0822 µM); in assay [4] (setting [14]), 0.25 µg/mL (≈ 0.326 µM); in assay [5] (setting [15]), 1 µg/mL (≈ 1.31 µM).
With `CC(C)(O/N=C(\C(=O)N[C@@H]1C(=O)N2C(C(=O)O)=C(C[N+]3(CCNC(=O)c4ccc(O)c(O)c4Cl)CC=CC3)CS[C@H]12)c1csc(N)n1)C(=O)[O-]` [II-13], the MIC in assay [1] (setting [6]) was 0.25 µg/mL (≈ 0.333 µM); in assay [2] (setting [7]), 0.5 µg/mL (≈ 0.666 µM); in assay [3] (setting [8]) it was 0.063 µg/mL (≈ 0.084 µM); in assay [4] (setting [9]), 0.25 µg/mL (≈ 0.333 µM); in assay [5] (setting [10]), 1 µg/mL (≈ 1.33 µM).
In the case of `C[C@H](O/N=C(\C(=O)N[C@@H]1C(=O)N2C(C(=O)[O-])=C(C[N+]3(CCNC(=O)c4ccc(O)c(O)c4Cl)CCCC3)CS[C@H]12)c1csc(N)n1)C(=O)O` [II-22], the MIC was found to be 0.125 µg/mL (≈ 0.169 µM) in assay [1] (setting [6]); 0.25 µg/mL (≈ 0.339 µM) in assay [2] (setting [7]); 0.125 µg/mL (≈ 0.169 µM) in assay [3] (setting [8]); 0.5 µg/mL (≈ 0.677 µM) in assay [4] (setting [9]); 2 µg/mL (≈ 2.71 µM) in assay [5] (setting [10]).
As to `CC(C)[C@H](O/N=C(\C(=O)N[C@@H]1C(=O)N2C(C(=O)[O-])=C(C[N+]3(CCNC(=O)c4ccc(O)c(O)c4Cl)CCCC3)CS[C@H]12)c1csc(N)n1)C(=O)O` [II-23], the MIC in assay [1] (setting [6]) was found to be 0.25 µg/mL (≈ 0.326 µM); in assay [2] (setting [7]), 0.25 µg/mL (≈ 0.326 µM); in assay [3] (setting [8]), 0.125 µg/mL (≈ 0.163 µM); in assay [4] (setting [9]), 0.125 µg/mL (≈ 0.163 µM); in assay [5] (setting [10]), 0.5 µg/mL (≈ 0.653 µM).
On to `Nc1nc(/C(=N/OC2(C(=O)O)CCC2)C(=O)N[C@@H]2C(=O)N3C(C(=O)[O-])=C(C[N+]4(CCNC(=O)c5ccc(O)c(O)c5Cl)CCCC4)CS[C@H]23)cs1` [II-24], for which the MIC was found to be 0.125 µg/mL (≈ 0.164 µM) in assay [1] (setting [6]); 0.5 µg/mL (≈ 0.654 µM) in assay [2] (setting [7]); 0.063 µg/mL (≈ 0.0824 µM) in assay [3] (setting [8]); 0.125 µg/mL (≈ 0.164 µM) in assay [4] (setting [9]); 0.5 µg/mL (≈ 0.654 µM) in assay [5] (setting [10]).
Regarding `CC(C)[C@H](O/N=C(\C(=O)N[C@@H]1C(=O)N2C(C(=O)[O-])=C(C[N+]34CCC(CNC(=O)c5ccc(O)c(O)c5Cl)(CC3)CC4)CS[C@H]12)c1csc(N)n1)C(=O)[O-].[Na+]` [II-25], the MIC in assay [1] (setting [6]) was 0.25 µg/mL; in assay [2] (setting [7]), 0.25 µg/mL; in assay [3] (setting [8]), 0.063 µg/mL; in assay [4] (setting [9]), 0.25 µg/mL; in assay [5] (setting [10]), 1 µg/mL.
